# Laboratory results from publication PMC4642645, “Oxacillin sensitization of methicillin-resistant Staphylococcus aureus and methicillin-resistant Staphylococcus pseudintermedius by antisense peptide nucleic acids in vitro” (BMC Microbiology, 2015).
# Values joined by “and” are separate entries in the source; they are usually repeats but may differ in a detail not shown here. Identical values can stand only once.
# How the values were obtained:
# NCTC 13142 [1] = assay: Oxacillin MIC and sensitization broth growth assay (broth microdilution, CLSI); assay type: cell-based, Staphylococcus aureus (MRSA); settings: for Oxacillin MIC with anti-mecA PNA treatment: NCTC 13142, 5 μM PNA; for Sensitization to oxacillin in broth microdilution assays: NCTC 13142, PNAs with EJH-L1 or HIV-1 Tat carrier, data not shown
# Protocol: (§1) The MRSA strain NCTC 13142 from Public Health England Culture Collections is a UK epidemic strain type EMRSA-15, SCCmec Type IV, and the MRSP strain HH-1 was isolated from a canine skin infection and is ST71, SCCmecII-III [19]. Bacteria were cultured on Columbia base agar (Oxoid, Basingstoke, UK) supplemented with 5 % horse blood (Oxoid) and 6 μg/ml oxacillin (Sigma Aldrich, UK) at 35 °C for 20 h. Overnight broth cultures were prepared from single bacterial colonies inoculated in 3 ml Mueller Hinton broth (MHB, Oxoid) supplemented with 6 μg/ml oxacillin and incubated at 35 °C for 20 h at 180 rpm on a rotary shaker.
# (§2) The MIC of oxacillin was determined by broth microdilution according to CLSI guidelines. Briefly, overnight broth cultures of MRSA and MRSP were standardized to OD625 = 0.08–0.09 (equivalent to 10^8 CFU/ml) in MHB and further diluted 100-fold to obtain 10^6 CFU/ml. The bacterial suspension was then inoculated at 50 μl per well to a final concentration of 5 × 10^5 CFU/ml. Two-fold serial dilutions of oxacillin (2–512 μg/ml) were added to bacterial cultures at 50 μl per well to a final volume of 100 μl per well, and 96 well plates were incubated at 35 °C for 24 h. MICs were visually scored.
# (§3) Overnight broth cultures were adjusted to 5 × 10^5 CFU/ml per well of a 96 well plate as described above and used either in a broth growth assay or a viable count assay. The broth growth assay was used as an initial screen of PNA efficacy because it was simple to carry out. […] Anti-mecA PNAs were added at either 2.5 or 5 μM. After incubation at 35 °C for 24 h, the MIC of oxacillin in combination with the PNAs in broth cultures were scored visually as recommended by CLSI guidelines.
# HH-1 [2] = assay: as above; assay type: cell-based, Staphylococcus pseudintermedius (MRSP); settings: for Oxacillin MIC with anti-mecA PNA treatment: HH-1, 2.5 μM PNA; for Sensitization to oxacillin in broth microdilution assays: HH-1, PNAs with EJH-L1 or HIV-1 Tat carrier, data not shown
# Protocol: as §1, §2, §3
# NCTC 13142 [3] = assay: Oxacillin sensitization viable count assay (CFU on oxacillin plates); assay type: cell-based, Staphylococcus aureus (MRSA); settings: for Sensitization to oxacillin (CFU reduction), result in words: NCTC 13142, PNA 2.5, 5, 7.5 μM (Z46: 7.5 μM)
# Protocol: (§4) The viable count assay is more sensitive than the broth assay and was used to assess the effects of PNAs that performed well in the initial screen described above. In the viable count assay, 5 × 10^5 CFU/ml per well of culture was treated either with 2.5, 5 and 7.5 μM of PNA for NCTC 13142, or 1, 2.5 and 5 μM of PNA for HH-1 in MHB at 35 °C for 6 h. […] Agar plates were incubated at 35 °C for 24 h, and dilutions resulting in 30–300 colonies per plate were used to determine the viable count. Experimental repeats were carried out on separate days, and reductions in CFU of treated cultures were normalized to CFU of the untreated control culture on the day. Statistical analysis of CFU reductions was carried out with the paired Student’s t-Test in Microsoft Excel.
# HH-1 [4] = assay: as above; assay type: cell-based, Staphylococcus pseudintermedius (MRSP); settings: for Sensitization to oxacillin (CFU reduction), result in words: HH-1, A73 and scrA 1, 2.5, 5 μM, Z46 0.5, 1, 2.5 μM, 6 h, plated on 16 μg/ml oxacillin, n = 3
# Protocol: as §4
# mecA mRNA [5] = assay: mecA mRNA level by RT-qPCR; assay type: cell-based, Staphylococcus pseudintermedius (MRSP) HH-1; settings: HH-1, 2.5 μM PNA, no oxacillin, normalized to proC and pyk, average, n = 3
# Protocol: (§5) Growth of cultures in a 96 well plate was monitored by reading the optical density at 550 nm every 5 min, after shaking for 5 s in a microplate reader (Spectramax 340PC, […]). Cultures were harvested when the untreated control culture increased in OD550 ≈ 0.1. Cultures with the same PNA treatment but in different wells across the 96 well plate were pooled for total RNA extraction and DNase I treatment (Ribopure™ Bacteria kit, Life Technologies). RNA was checked for gDNA contamination by qPCR using gyrA primers (Additional file 1: Table S1) and SsoFast™ EvaGreen® Supermix (Bio-Rad) before cDNA synthesis using 50 ng RNA and iScript™ Reverse Transcription Supermix (Bio-Rad). Samples of cDNA were diluted 10-fold and 4 μl used in each qPCR reaction. Non-template controls were included for each primer pair in each run, and technical duplicates for each sample were included in each run.
# (§6) Primer pairs for qPCR were designed by Primer3 with a Tm of 60 °C and product sizes of 100–200 bp (Additional file 1: Table S1). […] Primer efficiencies were determined using 10-fold serial dilutions of cDNA (10 pg-1 μg). […]
# Total RNA and cDNA were prepared as described above. Raw Cq values were analysed in qbase + (Biogazelle, Belgium) with user-defined primer efficiencies (Additional file 1: Table S1) and expression stabilities (M value) of each candidate reference gene fabD, gyrA, proC, pta, pyk, rho, sodA, and tpiA were calculated as the average pairwise variation for each gene with all other tested genes. […] Stepwise exclusion of the gene with the highest M value allowed ranking of the tested genes according to their expression stability, and from this the optimal number of reference genes was calculated. […] Relative mRNA levels were then calculated as induced normalized Cq/uninduced normalized Cq, and analysed with paired Student’s t-Test in Microsoft Excel.
# mecA mRNA [6] = assay: mecA mRNA level by RT-qPCR; assay type: cell-based, Staphylococcus aureus (MRSA) NCTC 13142
# Protocol: as §5, with “Non-template controls were included for each primer pair in each run, and technical duplicates for each sample were included in each run.” left out
# as §6
# Total RNA and cDNA were prepared as described above. Raw Cq values were analysed in qbase + (Biogazelle, Belgium) with user-defined primer efficiencies (Additional file 1: Table S1) and expression stabilities (M value) of each candidate reference gene fabD, gyrA, proC, pta, pyk, rho, sodA, and tpiA were calculated as the average pairwise variation for each gene with all other tested genes. […]
# NCTC 13142 [7] = assay: Growth inhibition assay (OD550 growth curves); assay type: cell-based, Staphylococcus aureus (MRSA); settings: NCTC 13142, MHB with 6 μg/ml oxacillin, PNA 0–7.5 μM, 35 °C, 6 h, OD550, n = 3
# Protocol: (§7) Anti-ftsZ PNAs were tested for effects on growth. Overnight MHB cultures were adjusted to 5 × 10^5 CFU/ml per well of a 96 well plate in MHB supplemented with 6 μg/ml oxacillin as described above. Anti-ftsZ PNA was added to final concentrations of 0, 1, 2.5, 5, 7.5 μM and incubated in a microplate reader (Spectramax 340PC, Molecular Devices) at 35 °C for 6 h. The optical density of the cultures was monitored at 550 nm with readings every 5 min after shaking for 5 s.
# HH-1 [8] = assay: Growth inhibition assay (OD550 growth curves); assay type: cell-based, Staphylococcus pseudintermedius (MRSP); settings: HH-1, MHB with 6 μg/ml oxacillin, PNA 0–7.5 μM, 35 °C, 6 h, OD550, n = 3
# Protocol: as §7
# NCTC 13142 [9] = assay: Light microscopy of Gram stained cells (cell morphology); assay type: cell-based, Staphylococcus aureus (MRSA); settings: NCTC 13142, 7.5 μM PNA, 6 h at 35 °C, 1000 × magnification
# Protocol: (§8) Bacterial cultures were treated with anti-ftsZ PNA Z46 in broth as described in the viable count assay. After 6 h at 35 °C, cultures were pelleted, washed once in PBS, and re-suspended in 1/10 of original volume of the culture in PBS. Ten microliter aliquots were heat-fixed, Gram stained, and viewed under a light microscope (Olympus BX60) at 1000 × magnification. Images were captured using the Image-Pro Plus 5.0 (MediaCybernetics), and counting of purple and pink cells were carried out using ImageJ 1.44o (National Institute of Health, USA).
# HH-1 [10] = assay: as above; assay type: cell-based, Staphylococcus pseudintermedius (MRSP); settings: HH-1, 2.5 μM PNA, 6 h at 35 °C, 1000 × magnification
# Protocol: as §8
# [11] = MHB, 35 °C, 24 h, scored visually, n=2
# [12] = 6 h, plated on 16 μg/ml oxacillin, n = 3
compound,measurement,setting,value
"Cc1onc(-c2ccccc2)c1C(=O)N[C@@H]1C(=O)N2[C@@H]1SC(C)(C)[C@@H]2C(=O)O [Oxacillin, oxacillin]",Oxacillin MIC,"NCTC 13142 [1]; NCTC 13142, 0 μM PNA, MHB, 35 °C, 24 h, scored visually, n=2",256 µg/mL and 512 µg/mL
same,MIC,"NCTC 13142 [1]; Staphylococcus aureus, NCTC13142, 24 h, NCTC 13142, 0 μM PNA, MHB, 35 °C, 24 h, scored visually, n=2",≥ 256 µg/mL
same,Oxacillin MIC,"HH-1 [2]; HH-1, 0 μM PNA, MHB, 35 °C, 24 h, scored visually, n=2",512 µg/mL
same,MIC,"HH-1 [2]; Staphylococcus pseudintermedius, 24 h, HH-1, 0 μM PNA, MHB, 35 °C, scored visually, n=2",≥ 256 µg/mL
"KFFKFFKFFK-O-caatatcctc-CONH2 [A101, anti-mecA PNA (−10 to −1) conjugated to cell-penetrating peptide …]",Oxacillin MIC with anti-mecA PNA treatment,NCTC 13142 [1]; [11],512 µg/mL
same,Oxacillin MIC with anti-mecA PNA treatment,HH-1 [2]; [11],256 µg/mL
KFFKFFKFFK-O-cactataatc-CONH2 [scrA],"Sensitization to oxacillin (CFU reduction), result in words",NCTC 13142 [3]; [12],did not have an effect
same,"Sensitization to oxacillin (CFU reduction), result in words",HH-1 [4],significant sensitization
same,Reduction of mecA transcripts,mecA mRNA [5],did not have a significant effect
"KFFKFFKFFK-O-catcaatatc-CONH2 [A73, anti-mecA PNA (−7 to +3) conjugated to cell-penetrating peptide …]",MRSA cells killed by oxacillin,"NCTC 13142 [3]; 7.5 μM PNA, 6 h at 35 °C, plated on MH agar with 16 μg/ml oxacillin, relative to untreated control",66%
same,"Sensitization to oxacillin (CFU reduction), result in words",NCTC 13142 [3]; [12],significantly sensitized
same,"mecA mRNA, result in words","mecA mRNA [6]; MRSA, 7.5 μM PNA, p < 0.05",reduced
same,Reduction of mecA transcripts,"mecA mRNA [6]; NCTC 13142, 5 μM PNA, no oxacillin, normalized to pta and gyrA, average, n = 3",38%
same,MRSP cells killed by oxacillin,"HH-1 [4]; 2.5 μM PNA, 6 h at 35 °C, plated on MH agar with 16 μg/ml oxacillin, relative to untreated control",92%
same,"Sensitization to oxacillin (CFU reduction), result in words",HH-1 [4],significantly sensitized
same,Oxacillin MIC with anti-mecA PNA treatment,NCTC 13142 [1]; [11],128 µg/mL
same,Sensitization of broth cultures to oxacillin,"NCTC 13142 [1]; NCTC 13142, 2.5–5 μM PNA, initial screening",4–8 fold
same,Oxacillin MIC with anti-mecA PNA treatment,HH-1 [2]; [11],64 µg/mL
same,Sensitization of broth cultures to oxacillin,"HH-1 [2]; HH-1, 2.5–5 μM PNA, initial screening",4–8 fold
same,Reduction of mecA transcripts,mecA mRNA [5],40%
same,Reduction of mecA transcripts,mecA mRNA [5]; listed as Anti-mecA PNA,reduced
"KFFKFFKFFK-eg1-AATTACTATA-NH2 [scrZ, scrambled control PNA for anti-ftsZ PNAs conjugated to the (KFF)3K peptide]",Concentration that inhibited growth,NCTC 13142 [7],not growth inhibitory
same,CFU reduction of NCTC 13142,"NCTC 13142 [3]; 7.5 μM PNA, 6 h, plated on 16 μg/ml oxacillin, ratio to untreated control, mean, n = 3",44%
same,Concentration that inhibited growth,HH-1 [8],2.5 µM
same,Cell morphology after Gram stain,NCTC 13142 [9],appeared normal
same,Cell morphology after Gram stain,HH-1 [10],appeared normal
"KFFKFFKFFK-eg1-TTCTAACATT-NH2 [Z19, anti-ftsZ PNA (−1 to +9) conjugated to the (KFF)3K peptide]",Concentration that inhibited growth,NCTC 13142 [7],ineffective
"KFFKFFKFFK-eg1-atcaatatcc-CONH2 [A82, anti-mecA PNA (−8 to +2) conjugated to cell-penetrating peptide …]",Oxacillin MIC with anti-mecA PNA treatment,NCTC 13142 [1]; [11],128 µg/mL
same,Oxacillin MIC with anti-mecA PNA treatment,HH-1 [2]; [11],256 µg/mL
"KFFKFFKFFK-eg1-ttcatcaata-CONH2 [A55, anti-mecA PNA (−5 to +5) conjugated to cell-penetrating peptide …]",Oxacillin MIC with anti-mecA PNA treatment,NCTC 13142 [1]; [11],256 µg/mL
same,Oxacillin MIC with anti-mecA PNA treatment,HH-1 [2]; [11],512 µg/mL
"MINWKLRLKNK-O-cactataatc-CONH2 [scrA-EJH, scrambled PNA conjugated to EJH-L1 peptide (…)]",Sensitization to oxacillin in broth microdilution assays,NCTC 13142 [1],did not have an effect
same,Sensitization to oxacillin in broth microdilution assays,HH-1 [2],did not have an effect
MINWKLRLKNK-O-catcaatatc-CONH2 [A73-EJH],Sensitization to oxacillin in broth microdilution assays,NCTC 13142 [1],2 fold
same,Sensitization to oxacillin in broth microdilution assays,HH-1 [2],2 fold
"YGRKKRRQRRR-O-cactataatc-CONH2 [scrA-Tat, scrambled PNA conjugated to HIV 1-Tat peptide (…)]",Sensitization to oxacillin in broth microdilution assays,NCTC 13142 [1],did not have an effect
same,Sensitization to oxacillin in broth microdilution assays,HH-1 [2],did not have an effect
YGRKKRRQRRR-O-catcaatatc-CONH2 [A73-Tat],Sensitization to oxacillin in broth microdilution assays,NCTC 13142 [1],2 fold
same,Sensitization to oxacillin in broth microdilution assays,HH-1 [2],2 fold
